Source: PubChem BioAssay (NCI)
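96-well plates; 48 h exposure; 5 concentrations. Endpoints by linear interpolation between flanking doses. Not reached: highest tested concentration assigned. GI50 marks 50% less growth. TGI is the concentration that stops growth completely.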

Tests used:
Assay in all cases: growth of human tumour cells (NCI), 48 h
[1] = test system: HCT-116 colon
[2] = test system: NCI-H23 lung
[3] = test system: M14 melanoma
[4] = test system: OVCAR-8 ovarian
[5] = test system: SK-MEL-28 melanoma
[6] = test system: SW-620 colon
[7] = test system: SK-OV-3 ovarian
[8] = test system: NCI-H460 lung
[9] = test system: NCI-H522 lung
[10] = test system: RPMI-8226 leukemia

SMILES | GI50 [1] [µM] | TGI [1] [µM] | GI50 [2] [µM] | TGI [2] [µM] | GI50 [3] [µM] | TGI [3] [µM] | GI50 [4] [µM] | TGI [4] [µM] | GI50 [5] [µM] | TGI [5] [µM] | GI50 [6] [µM] | TGI [6] [µM] | GI50 [7] [µM] | TGI [7] [µM] | GI50 [8] [µM] | TGI [8] [µM] | GI50 [9] [µM] | TGI [9] [µM] | GI50 [10] [µM] | TGI [10] [µM]
NS(=O)(=O)c1ccc(NC(=O)c2ccc(NC3=C(Cl)C(=O)N(Cc4ccccc4)C3=O)cc2)cc1 | 2.68 | 10.3 | 3.42 | 14.3 | 12 | 34.6 | 10.2 | > 100 | 4.16 | > 100 | 2.69 | 7.78 | 41 | > 100 | 5.07 | > 100 | 1.91 | 4.78 | – | –
C[n+]1c(/C=C\C=C\N2CCCCC2)sc2ccccc21 | 0.308 | > 32.1 | 0.367 | 18.3 | 2.82 | > 35.2 | 0.384 | 5.01 | 0.552 | 13.4 | 0.513 | 14.9 | 0.794 | 6.79 | 0.489 | 4.37 | – | – | 0.0691 | 1.09
CCC(C)CN1C(=O)NC(C)(Cc2ccccc2)C1=O (configuration not stated) | – | – | – | > 100 | – | > 100 | – | > 100 | – | > 100 | – | > 100 | – | – | – | > 100 | – | > 100 | – | –
COc1cccc(C2CC(c3cc(OC)c(OC)c(OC)c3)=NN2)c1 (configuration not stated) | 5.31 | 19 | – | – | 48.8 | > 100 | 13.9 | 39 | 17.8 | > 100 | 3.05 | 11.5 | 24.1 | 72.2 | 13.3 | 35.4 | 12.8 | 42.1 | 5.18 | 26
COc1cc(-c2nn3c(/C=C4/C(=O)Nc5ccccc54)c(-c4ccc(C)cc4)nc3s2)cc(OC)c1OC | 2.59 | 13.8 | 4.54 | 25.3 | – | – | 3.71 | > 100 | – | – | – | – | 15.2 | 39.7 | 1.98 | > 100 | 10.2 | 37.5 | – | –
N#Cc1cccc(N2C(=O)c3c(c(-c4ccccc4)c(-c4ccc(Sc5ccc(-c6c(-c7ccccc7)c7c(c(-c8ccccc8)c6-c6ccccc6)C(=O)N(c6cccc(C#N)c6)C7=O)cc5)cc4)c(-c4ccccc4)c3-c3ccccc3)C2=O)c1 | – | > 100 | – | > 100 | – | > 100 | – | > 100 | – | > 100 | – | > 100 | – | – | – | > 100 | – | > 100 | – | > 100
CCC[CH2][Sn]([CH2]CCC)([O]C(=O)c1c(F)cccc1F)[O]C(=O)c1c(F)cccc1F | 1.02 | 2.25 | 0.439 | 1.6 | 1.08 | 2.26 | 1.18 | 2.41 | 0.599 | 1.87 | 0.32 | 1.23 | 1.82 | 3.24 | 1.54 | 2.9 | 0.0905 | 0.213 | – | –
COc1cc2c(/C=N\N=C(N)N)c(Cl)[nH]c2cc1C | 10.2 | 21.9 | 14.1 | 28 | 12.5 | 25.2 | 15.4 | 38.6 | – | – | 14.7 | 30.7 | 9.03 | 24.1 | 15 | > 100 | 21.4 | > 100 | 10.5 | 25
O=C(NCCCCCCCCNC(=O)c1cnc2ccccc2n1)c1cnc2ccccc2n1 | – | > 100 | – | > 100 | – | > 100 | – | > 100 | – | – | – | > 100 | – | > 100 | – | > 100 | – | – | – | > 100
Nc1ncnc2c1ncn2C1OC(COP(=O)(O)CP(=O)(O)O)C(O)C1O (configuration not stated) | – | > 100 | – | > 100 | – | > 100 | – | > 100 | – | > 100 | – | > 100 | – | > 100 | – | – | – | > 100 | – | > 100
N=C(c1ccccc1)N(c1ccccc1)c1ccccc1 | – | > 100 | – | > 100 | – | > 100 | – | > 100 | – | > 100 | – | > 100 | – | – | – | > 100 | – | > 100 | – | –
FC(F)(F)C1(Cl)C(c2ccccc2)=C1c1ccccc1 | – | 27.4 | – | 29.3 | – | 25.6 | – | 29.1 | – | 28.1 | – | 27 | – | 32.4 | – | 30.4 | – | – | – | > 100
C=CCC1OC(C)(C)Oc2ccc(OCOCCOC)cc21 (configuration not stated) | – | > 100 | – | > 100 | – | > 100 | – | > 100 | – | > 100 | – | > 100 | – | > 100 | – | > 100 | – | – | – | –
O=C(O)CN(c1ccccc1)S(=O)(=O)c1ccc(NC(=O)c2ccccc2)cc1 | – | – | – | > 100 | – | > 100 | – | > 100 | – | > 100 | – | > 100 | – | > 100 | – | > 100 | – | > 100 | – | > 100
COc1ccc(S(=O)(=O)NC(C)C(=O)O)cc1 (configuration not stated) | – | – | – | > 100 | – | > 100 | – | > 100 | – | > 100 | – | > 100 | – | > 100 | – | > 100 | – | > 100 | – | > 100
CC1=CC2CC(C)=C(CC[C@]3(C)CC[C@H]([C@@H](C)C(=O)O)OO3)C(C)(C)C2CC1 (some centres not stated) | – | 0.943 | – | 2.35 | – | 2.67 | – | 1.31 | – | 3.1 | – | 0.354 | – | 3.68 | – | 0.393 | – | 0.383 | – | –
COc1cc(C(=O)OCCCCCCCCCCC[P+](c2ccccc2)(c2ccccc2)c2ccccc2)ccc1O | 0.273 | 1.09 | – | – | 0.349 | 1.45 | 0.345 | 1.53 | – | – | – | – | 1.35 | 5.5 | – | – | – | – | 0.2 | 0.942
